# Source: patent US5068253A, “Treatment of a microbial infection with drugs containing para-acetamidobenzoic acid” (priority 1990, dated 1991)
# Values joined by “and” are separate entries in the source; they are usually repeats but may differ in a detail not shown here. Identical values can stand only once. Counter-ions that a name gives are not always drawn.
# Columns and labels:
# [1] = biological target: T1, Dihydropteroate synthase (DHPS) (Pneumocystis carinii, UniProt P29251); assay: Catalytic DHPS assay, crude enzyme preparation from P. carinii; format: biochemical; details: for inhibition at 1000 µM / inhibition at 100 µM / inhibition at 10 µM / Percent DHPS Inhibition: P. carinii, single runs; for inhibition at 1000 µM / inhibition at 100 µM / inhibition at 10 µM: read-out: Percent DHPS Inhibition
# T1 construct: Enzyme preparations were made by resuspending P. carinii or T. gondii organisms in 1 ml PBS, sonicating to disrupt the organisms; endogenous in cells; host or cells: P. carinii organisms partially purified from lungs of dexamethasone-treated rats; supernatant of sonicate used as crude enzyme
# T1 sequence (P29251 1-740): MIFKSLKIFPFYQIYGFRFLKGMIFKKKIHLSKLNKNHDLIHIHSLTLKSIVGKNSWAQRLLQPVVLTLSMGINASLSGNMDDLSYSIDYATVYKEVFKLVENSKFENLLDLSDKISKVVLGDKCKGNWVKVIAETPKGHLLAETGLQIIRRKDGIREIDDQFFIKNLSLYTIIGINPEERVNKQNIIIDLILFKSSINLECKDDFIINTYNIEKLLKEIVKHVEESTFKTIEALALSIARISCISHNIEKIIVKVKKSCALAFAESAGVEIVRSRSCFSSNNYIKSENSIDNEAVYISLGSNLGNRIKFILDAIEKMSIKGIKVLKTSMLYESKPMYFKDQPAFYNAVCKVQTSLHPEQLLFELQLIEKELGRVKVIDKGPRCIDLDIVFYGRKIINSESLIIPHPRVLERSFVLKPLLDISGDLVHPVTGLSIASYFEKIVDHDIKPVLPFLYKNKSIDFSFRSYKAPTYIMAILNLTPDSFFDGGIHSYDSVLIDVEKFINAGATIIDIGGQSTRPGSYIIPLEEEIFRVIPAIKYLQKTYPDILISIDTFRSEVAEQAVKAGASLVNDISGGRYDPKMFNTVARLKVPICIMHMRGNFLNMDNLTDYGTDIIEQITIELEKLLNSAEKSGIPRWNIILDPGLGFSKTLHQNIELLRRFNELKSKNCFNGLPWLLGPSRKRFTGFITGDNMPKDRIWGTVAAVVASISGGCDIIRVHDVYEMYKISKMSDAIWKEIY
# Protocol: (§1) Dihydropteroate synthase (DHPS) is an enzyme of the de novo folate synthesis pathway which is known to be susceptible to sulfonamides. […] has a structural similarity to PABA (paraamino benzoic acid), one of the substrates of DHPS. To determine whether DHPS is the target for PAcBA, a catalytic DHPS assay as previously described [Allegra et al., J. Clin. Invest. 85:371-379 (1990)] was used.
# (§2) Briefly, assay tubes contain 5 mM MgCl2, 5 mM DTT, 10 μM H2 PtCH2 OPP, 1 μM [^3 H]pABA (final sp act, 2 Ci/mmol), and 40 mM Tris/HCl, pH 8.3, in a total reaction volume of 100 μl. Various concentrations of inhibitors are added as needed. Enzyme preparations were made by resuspending P. carinii or T. gondii organisms in 1 ml PBS, sonicating to disrupt the organisms, and pelleting the cellular debris. The supernatant was saved and used as the crude enzyme preparation. Reactions are initiated by the addition of 50 μl of enzyme preparation. After a 30-min incubation at 37° C. the reaction tubes are placed on ice to terminate the reactions, and then spotted onto 3×30-cm strips of 3 MM chromatography paper (Whatman Laboratory Products Inc.). The strips are developed in a descending chromatography tank using an elution buffer of 0.1M KH2 PO4, pH 7.0. The origins containing the labeled products of the reaction are cut from the strips, placed in scintillation vials, and counted in a liquid scintillation counter (Packard Tri-Carb; Packard Instrument Co. Inc., Downers Grove, Ill.) 24 h after the addition of 9.5 ml of counting cocktail (3A70b; Research Products International Corp., Mt. Prospect, Ill.).
# (§3) The results of the DHPS inhibition assay carried out on P. carinii (PC) and T. gondii (Toxo) using the indicated composition are shown below in Table II.
# [2] = biological target: T2, Dihydropteroate synthase (DHPS) (Toxoplasma gondii, UniProt A0A7J6K300); assay: Catalytic DHPS assay, crude enzyme preparation from T. gondii; format: biochemical
# T2 construct: crude supernatant of sonicated T. gondii RH organisms from mouse peritoneum; bifunctional HPPK-DHPS polypeptide
# T2 sequence (A0A7J6K300 1-748): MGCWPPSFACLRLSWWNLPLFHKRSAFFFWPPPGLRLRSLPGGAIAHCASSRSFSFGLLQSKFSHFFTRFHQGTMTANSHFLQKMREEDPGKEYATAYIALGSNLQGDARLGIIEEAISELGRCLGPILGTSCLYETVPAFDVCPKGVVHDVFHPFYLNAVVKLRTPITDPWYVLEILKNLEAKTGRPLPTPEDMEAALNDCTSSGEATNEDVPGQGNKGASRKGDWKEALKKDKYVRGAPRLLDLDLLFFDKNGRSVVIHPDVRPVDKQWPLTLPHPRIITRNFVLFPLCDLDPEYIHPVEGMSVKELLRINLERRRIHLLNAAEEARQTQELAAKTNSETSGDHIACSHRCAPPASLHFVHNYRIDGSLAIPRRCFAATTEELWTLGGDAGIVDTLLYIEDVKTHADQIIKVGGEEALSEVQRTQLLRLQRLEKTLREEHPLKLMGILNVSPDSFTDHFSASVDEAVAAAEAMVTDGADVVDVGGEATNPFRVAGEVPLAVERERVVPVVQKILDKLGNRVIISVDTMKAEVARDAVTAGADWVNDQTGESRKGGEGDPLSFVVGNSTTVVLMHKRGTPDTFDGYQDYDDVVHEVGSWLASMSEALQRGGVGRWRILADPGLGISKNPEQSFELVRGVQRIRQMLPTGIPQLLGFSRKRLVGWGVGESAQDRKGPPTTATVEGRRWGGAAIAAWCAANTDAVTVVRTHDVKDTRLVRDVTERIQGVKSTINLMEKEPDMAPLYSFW
# Source text: The RH strain of Toxoplasma gondii were used in all experiments. Organisms are passed by intraperitoneal inoculation into Balb/c mice every 3 to 4 days. Organisms were harvested by lavaging the peritoneum of infected animals 3 to 4 days after inoculation. Organisms were resuspended in PBS, cells are removed by differential centrifugation, and organisms were then pelleted and utilized in the studies.
# as §1, §2, §3
# P. carinii = assay: Drug inhibition assay: [3H]PABA incorporation into reduced folates by P. carinii organisms; format: cell-based, Pneumocystis carinii; details: for activity at 10000 µM: drug 1 × 10^-2 M, 0 = total inhibition
# Protocol: The following assay, used previously to assess drug activity against P. carinii or T. gondii [Kovacs et al., J. Infectious Diseases 160:312-320 (1989)], was used to test drugs for their ability to adversely affect the metabolism of pneumocystis and toxoplasma.
# An animal model of Pneumocystis carinii pneumonia was used to obtain organisms. This model involves treating rats, usually Sprague-Dawley rats, with a corticosteroid, in the present case dexamethasone (1-2 mg/L of drinking water) for 6-10 weeks. Tetracycline is included in the water (1 mg/mL) to prevent bacterial superinfection. Such immunosuppressed rats will develop P. carinii pneumonia spontaneously, and P. carinii organisms are obtained by removing the lungs in a sterile manner, cutting up the lungs and disrupting them with a Stomacher (Tekmar), which makes a suspension of organisms and cells. The P. carinii organisms are then partially purified by Ficoll-Hypaque density gradient centrifugation, washed in phosphate buffered saline (PBS), and used in the following experiment.
# For drug inhibition studies, organisms are incubated with drugs at varying concentrations for 2-h in paraaminobenzoic acid-free (PABA-free) and folate-free RPMI before pulsing with [^3 H]PABA.
# Organisms are harvested after an 18-24 h pulse and washed twice in phosphate buffered saline (PBS). Folates are extracted as previously described [Allegra et al., J. Biol. Chem. 261:6478-6485 (1986)]. The organism pellet is heated at 100° C. for 1 min in 2% sodium ascorbate, pH 6.0, and 2% 2-mercaptoethanol; after centrifugation, the supernatant is treated with partially purified porcine kidney conjugase for 30 min at 37° C. to convert all folates to monoglutamates. After an additional boiling with sodium ascorbate and 2-mercaptoethanol, the folates are extracted into methanol using a C-18 cartridge (Sep-Pak, Waters Chromatography Division, Milford, Mass.) and concentrated under a stream of nitrogen.
# The individual folates are resolved by high-performance liquid chromatography (HPLC) using a C8 μBondapak column (Waters Chromatography) under isocratic conditions; the running buffer is 15% ethanol and 85% Pic A (Waters Chromatography), pH 5.5 Radioactivity is determined by an in-line scintillation counter (Flow 1 Beta, model CR, Radiomatic Instruments, Tampa, Fla.). Unlabeled folates are included in each run as internal controls.
# Results are presented as the percentage of total radiolabel incorporated into reduced folates compared with untreated controls.
# [3] = T. gondii, 1 × 10^-4 M, single runs, read-out: Percent DHPS Inhibition
# [4] = T. gondii, 1 × 10^-5 M, single runs, read-out: Percent DHPS Inhibition
# [5] = drug 1 × 10^-4 M, single test runs, 100 = no inhibition, 100 µM
# [6] = drug 1 × 10^-5 M, single test runs, 100 = no inhibition, 10 µM
# [7] = Pneumocystis carinii, single test runs, 100 = no inhibition, read-out: Results: % of Control (total radiolabel incorporated into reduced folates)
# [8] = Pneumocystis carinii, drug 1 × 10^-4 M, single test runs, 100 = no inhibition, read-out: Results: % of Control (total radiolabel incorporated into reduced folates)
# [9] = concentration of each value not resolvable: run has fewer values than the concentrations listed for the drug (1 × 10-2 to 1 × 10^-6 M; PAcBA also 3 × 10^-3 M), values of a run in order of falling concentration
Compound,inhibition at 1000 µM ([1]; 1 × 10^-3 M) [%],inhibition at 100 µM ([1]; 1 × 10^-4 M) [%],inhibition at 10 µM ([1]; 1 × 10^-5 M) [%],"inhibition at 100 µM [2, 3] [%]","inhibition at 10 µM [2, 4] [%]",Results: % of Control (total radiolabel incorporated into reduced folates) (P. carinii; [5]),Results: % of Control (total radiolabel incorporated into reduced folates) (P. carinii; [6]),activity at 10000 µM (P. carinii; [7]) [%],activity at 100 µM (P. carinii; [8]) [%],Results: % of Control (total radiolabel incorporated into reduced folates) (P. carinii; [9]),Percent DHPS Inhibition ([1]; 1 × 10^-3 M),Percent DHPS Inhibition ([1]; 1 × 10^-4 M),Percent DHPS Inhibition ([1]; 1 × 10^-5 M),also measured
"CC(O)CN(C)C (stereo not drawn) [1-dimethylamino-2-propanol, reference compound]",81.7,91.6,100,93.6,100,100 % of Control and 71.3 % of Control,95 % of Control and 65.4 % of Control,–,–,–,–,–,–,–
"OC[C@H]1O[C@@H](n2cnc3c(O)ncnc32)[C@H](O)[C@@H]1O [Inosine, inosine, reference compound]",100,100,100,–,–,–,–,57.5,69.8,61.9 % of Control and 57.6 % of Control and 100 % of Control,–,–,–,"activity at 1000 µM (P. carinii; Pneumocystis carinii, drug 1 × 10^-3 M, single test runs, 100 = no inhibition, read-out: Results: % of Control (total radiolabel incorporated into reduced folates)): 100%"
"CC(=O)Nc1ccc(C(=O)O)cc1 [PAcBA as 1-dimethylamino-2-propanol salt, PAcBA salt of 1-dimethylamino-2-propanol]",–,–,–,–,–,15 % of Control and 20 % of Control,82 % of Control and 44 % of Control and 43 % of Control,0,19,–,–,–,–,"Results: % of Control (total radiolabel incorporated into reduced folates) (P. carinii; drug 1 × 10^-3 M, single test runs, 100 = no inhibition, 1000 µM): 0 % of Control; Results: % of Control (total radiolabel incorporated into reduced folates) (P. carinii; drug 1 × 10^-6 M, single test runs, 100 = no inhibition, 1 µM): 100 % of Control and 67 % of Control and 74 % of Control; Potency of the salt relative to the free acid PAcBA against P. carinii (P. carinii; salt versus free acid): approximately 10 fold"
"CC(=O)Nc1ccc(C(=O)O)cc1 [PAcBA, p-acetamidobenzoic acid]",14.3,–,–,21.4,68.4,–,–,–,–,–,16.6% and 22.2%,37.9% and 52.6% and 62.1%,70.2% and 100% and 92.2%,"Inhibition of DHPS in P. carinii (in words) [1]: inhibition; Inhibition of DHPS activity in Toxoplasma gondii (in words) [2]: inhibited; inhibition at 1000 µM ([2]; T. gondii, 1 × 10^-3 M, single runs, read-out: Percent DHPS Inhibition): 5.1%; inhibition at 1 µM ([2]; T. gondii, 1 × 10^-6 M, single runs, read-out: Percent DHPS Inhibition): 83.4%; Inhibition of P. carinii (in words) (P. carinii; 1×10^-2 M, 3×10^-3 M, 1×10^-3 M): considerable inhibition; Inhibition of P. carinii (in words) (P. carinii; 1×10^-4 M): some inhibition"
Isoprinosine [reference compound],–,–,–,–,–,–,–,–,–,100 % of Control,35.6%,87.4%,100%,"Percent DHPS Inhibition ([2]; T. gondii, 1 × 10^-3 M, single runs): 7.8%; Percent DHPS Inhibition ([2]; T. gondii, 1 × 10^-4 M, single runs): 28.3%; Percent DHPS Inhibition ([2]; T. gondii, 1 × 10^-5 M, single runs): 76.5%; Percent DHPS Inhibition ([2]; T. gondii, 1 × 10^-6 M, single runs): 100%; Inhibition of P. carinii (in words) (P. carinii; no concentration stated): has inhibition"
